For this assay, the system named is β2-m and L-chain. Kind of assay: adsorption ability of immobilized compounds / carriers for β2-m and L-chain. The class given is binding. The conditions noted are these: compound immobilized onto a carrier; in words. The text has this: In order to find out a compound which has an effect on adsorbing β2 -m and L-chain, compounds having various log P are immobilized onto a carrier.
As the result of an investigation using carriers having various molucular weights of the exclusion limit, it is shown that the preferable range of pore size indicated by molecular weight of the exclusion limit is from 1×10^4 to 6×10^5. […] Therefore, the molecular weight of the exclusion limit of the carrier empolyed in the present invention is preferably from 1×10^4 to 6×10^5,more preferably from 2×10^4 to 3×10^5.

As for `CCCCCCCCN` [n-octylamine], the “adsorption ability of β2-m and L-chain” value is “extraordinarily increased”.
